How the values were obtained:
thrombocytes = assay: ADP-induced aggregation of thrombocytes in vitro (Born method, plasma enriched with thrombocytes); assay type: cell-based, rabbit; conditions: 3-minute incubation, ADP 10^−5 M
Description: The aggregation of thrombocytes was studied by the Born method based on determination of the changes in the optical density of plasma enriched with thrombocytes after its incubation with an aggregation inductor.
Adenozinediphosphoric acid (ADP) was selected as an aggregation inductor, which in fact is an aggregation generator. Use was made of a sample (registration number 885) of the Sigma Diagnostics Company (USA) in final concentration of 10^−5 M.
The experiments were carried out on male rabbits of the “Chinchilla” breed having a mass of 2.7±0.3 kg. 18-24 hours prior to the experiment they were deprived of feed while preserving free access to water.
To obtain plasma enriched with thrombocytes, blood was taken from a cut of a marginal vein of the rabbit ear, the sample was stabilized with 3.8% of sodium citrate solution in a ratio of 9:1 and centrifuged at 200 g (1000 rev/min) for 10 minutes. The top supernatant layer enriched with thrombocytes was transferred by an automatic dropper into a silicone test tube and kept at 37° C. The plasma enriched with thrombocytes contained, on the average, […]. If this content exceeded the specified 3×10^8 blood platelets in 1 liter, this sample was diluted to the necessary concentration with plasma deprived of thrombocytes, which was obtained by centrifuging blood at 650 g during 10 minutes.
The measurements of the optical density of the samples were made on two-channel aggregometer of the “Chronolog” Company (USA). A flask containing 490 mkl of plasma rich with thrombocytes was placed in a device, into which a magnetic agitator covered with Teflon was lowered. The index of maximum amplitude of aggregation (MA) in percent of a fall of the plasma optical density under effect of the aggregation inductor was recorded. The control index MA of plasma was compared with the MA of plasma incubated for 3 minutes with different concentrations of the compounds: from 10^−3 to 10^−7 in vitro experiments or with plasma obtained 15, 30, 60 and 120 minutes after intravenous administration of different doses of the compounds in vivo experiments.
The process of aggregation of thrombocytes was recorded with the help of a computer; on the monitor screen the there were depicted curves reflecting changes of the optical density of the plasma enriched which was taken as a standard 100% compared to the optical density of the non-thrombocyte plasma taken for 0% content of thrombocytes.
Under in vitro conditions a flask was filled with blood plasma enriched with thrombocytes, to which an aggregation inductor ADP was added at a concentration of 10^−5 M, incubated for 3 minutes, and then the compounds according to the invention were introduced directly into the flask. Their action by aggregation of thrombocytes was studied after 3-minute incubation in a wide range of concentrations from 10^−3 to 10^−7 M to minimum concentration of 10^−7M not inducing no effect of suppressing the aggregation.

[1] = Electrochemical activity: polarographic reduction on mercury dripping electrode; assay type: physicochemical; conditions: for i: 2.0% sodium chloride background, 9·10^−4 M; for i / −E1/2: 37° C., forward trace, average for the group of compounds; for −E1/2: vs SCE
Description: The study was carried out on a general-purpose polarograph PU-1 with a two-coordinate recorder of the “LKD” type using a three-electrode thermostatically controlled polarographic cell and mercury dripping electrode (MDE) with forced separation of the drop and a dropping period of 0.5 second. A platinum wire was used as an auxiliary electrode and a saturated calomel electrode (SCE) was used as a control electrode.
2.0% solutions of sodium chloride having pH 7.0, 7.2, 7.4, 7.6 were used as a background; the pH values of the background solution were corrected by a solution of sodium hydroxide. The polarographic cell was filled with 5.0 ml of the background solution and for 5 minutes was purged with nitrogen for removing the dissolved oxygen. Then 0.5 ml of solution of the studied substance was added to the background solution, and the polarogram was recorded as a polarographic wave. The concentration of the compounds in the polarographic cell was 9·10^−4 M.
The pH was measured on the pH-meter with an accuracy of +0.05 pH units. The polarographic measurements were carried out at a temperature of 37° C. The recording of polarograms of the investigated materials was effected under conditions of DC current at a scanning rate of the potential 10.0 mV/s with a active scanning stroke from a potential 0 to −0.5 V and sweep retrace from a −0.5 V to 0. The electric-current sensitivity was 5.0 mkA. The scale by the coordinate of the potentials was 50.0 mV/cm. The values of potentials of the half-wave E1/2 of the investigated materials are given with respect to the SCE potential.
The polarogram parameters such as a limiting current ilim and E1/2 were determined by the graphic method. The number of electrons participating in the reaction was calculated on the basis of the analysis of the polarographic wave using the Geirovsky-Ilkovich equation.
The calculation of the number of electrons participating in the reduction reaction was effected using the Geirovsky-Ilkovich equation: […]

[2] = system: embryonic fibroblasts of mouse NIH-3T3; assay: Effect on endocellular pHi of fibroblasts (microspectrofluorimetry with FDA / BCECF-AM); assay type: cell-based; conditions: for rise of pHi: fibroblasts in an attached spread state; for change of pHi: medium DME without blood serum, 20 minutes; for increase of pHi of cytosol: medium with 10.0% blood serum, 20 minutes after addition
Description: The effect of the compounds according to the invention on the endocellular pH, embryonic fibroblasts of mouse NIH-3T3 supplied by the All-Russian Collection of Cellular Cultures of the Institute of Cytology of the Russian Academy of Sciences St. Petersburg was investigated. The cells were grown in the DMEM (Sigma) medium containing 2.2 g/l of sodium bicarbonate with addition of 80.0 mkg/ml of gentamicin and 10.0% embryonal veal serum at a temperature of 37° C. in an atmosphere containing 5.0% of carbon dioxide. For these experiments use was also made of a medium buffer with 5.0 mM of HEPES and 15.0 mM of sodium bicarbonate without serum or with addition of 5.0% serum. The cells were calculated with the help of a hemocytometer. A share of the dead cells was determined by colouring trypan blue.
The measurements of the endocellular pHi were carried out with the help of colorants FDA (Sigma) and BCECF-AM (Calbiochem) on a microspectrofluorimeter by a standard technique (Koshevoy Yu. V., Akatov V. S., Grobova M. E. Microspectrofluorimeter for measuring endocellular pH (micro pH)”. Devices and equipment for studies in the field of physical-and-chemical biology and biotechnology. Pushchino, 1990. P. 8-14).
The cells at a temperature of 37° C. were colored within 5 minutes with 5.0 mkM PDA that before the colouring was prepared from a 10.0 mM solution in acetone by dilution for 30 minutes in a phosphatic buffer to 0.1 mM or 2.0 mkM 1.0 mM solution BCECF-AM in DMSO.
The two-wave method of determining pHi was used based on the ratio intensities of fluorescence of the cells on two wavelengths (Akatov V. S. et all), “Endocellular pH and substrate dependence of proliferation of fibroblasts of Chinese hamster, Cytology, 1991, 33 (7), p. 86-94). The fluorescence was excited by light at λ=490 nm, the emission was recorded simultaneously with two photomultipliers on wavelengths λ=535 nm and λ=570 nm. The K-ratio of the fluorescence on two wavelengths was determined with a deduction of the background fluorescence of the medium near the investigated cells for 40-60 individual cells, which are then averaged taking into account the measurement error. A thermostatically controlled table was used that allowed measurements to be conducted at a temperature of 37° C. An account was taken for the photodynamic damage of the pigmented cells during long-time continuous illumination by excited light. The readings were taken from a section of the preparation exposed to light for not more than 5 minutes.
The calibration curves for determining the absolute pHi values by magnitude K were constructed using the Thomas technique (Thomas J. A., Bushbaum R. N., Zimniak A. w Racker E. “Intracellular pH measurements in Ehrlich ascites tumor cells utilizing spectroscopic probe generated in situ”, Biochemistry, 1979, v. 18, p. 2210-2218), for which case the pigmented cells treated for 5-10 minutes with carboxyacidic nigericyn (Calbiochem) at a concentration of 5-10 mkg/ml was placed in a solution with a high content of potassium—130 mM KCl, 1.0 mM MgCl2, 20.0 mM of HEPES) and with pH values from 6.2 to 7.6. The K values were measured in the media with different pH assuming that pHi of the cells equals to the pH of the medium due to the action of nigericyn, which exchanges potassium ions for protons and at a high content of potassium in the medium counterbalances the pH of the medium and cells. Calibration curves were used based on the fluorescence of same medium with addition of 5.0 mkM of fluorescence or BCECF were used to the control the stability of the of the instrument readings.
The cells were colored by pigment BCECF-AM and pHi was measured 10 minutes after incubation in the medium with an appropriate pH value. […]

Which “MA - fall of optical density of plasma, % to the standard” value (shortened to “MA - fall … % to the standard”) (thrombocytes; 10^−3 M, control 60.8 ± 3.4) does the source give for `Nc1ncnc2c(=O)n([C@@H]3O[C@H](CO)[C@@H](O)[C@H]3O)[nH]c(=O)c12.[Na]` [Compound 31, sodium salt of 4-amino-7-(β-D-ribofuranosile)pyrimido[4,5-d]-6H-pyridazine-5,8-dione] here?
Its value is 44.9 ± 2.3 %.

And the “MA - fall … % to the standard” value (thrombocytes; 10^−4 M, control 60.0 ± 2.1)?
Its value is 46.7 ± 2.2 %.

What about the “MA - fall … % to the standard” value (thrombocytes; 10^−5 M, control 52.5 ± 2.1) of the same compound?
Its value is 39.9 ± 2.1 %.

And the “MA - drop of optical density, %” value (thrombocytes; 10^−6 M, control 52.8 ± 1.8)?
The value was 47.5 ± 1.7 %.

What about the “MA - drop of optical density, %” value (thrombocytes; 10^−7 M, control 51.5 ± 2.1) of the same compound?
The value was 49.5 ± 1.2%.

With `O=c1[nH]n([C@@H]2O[C@H](CO)[C@@H](O)[C@H]2O)c(=O)c2nccc(O)c12.[Na].[Na]` [Compound 4, disodium salt of 4-hydroxy-7-(βD-ribofuranosile)pyrido[2,3-d]-6H-pyridazine-5,8-dione] as the compound, how does the “MA - fall … % to the standard” value (thrombocytes; 10^−3 M, control 60.8 ± 3.4) read?
Its value is 49.2 ± 2.3 %.

What about the “MA - fall … % to the standard” value (thrombocytes; 10^−4 M, control 60.0 ± 2.1) of the same compound?
The value was 50.2 ± 2.0 %.

What about the “MA - fall … % to the standard” value (thrombocytes; 10^−5 M, control 52.5 ± 2.1) of the same compound?
Its value is 46.2 ± 3.1 %.

What about the “MA - drop of optical density, %” value (thrombocytes; 10^−6 M, control 52.8 ± 1.8) of the same compound?
The value was 50.6 ± 3.1%.

And the “MA - drop of optical density, %” value (thrombocytes; 10^−7 M, control 51.5 ± 2.1)?
Its value is 49.9 ± 3.4%.

Which “MA - fall … % to the standard” value (thrombocytes; 10^−3 M, control 60.8 ± 3.4) does the source give for `Nc1cnc2c(=O)[nH][nH]c(=O)c2n1.[Na]` [Compound 28, sodium salt of 2-amino-pyrazine[2,3-d]-6H-pyridazine-5,8-dione] here?
Its value is 49.7 ± 2.2 %.

What about the “MA - fall … % to the standard” value (thrombocytes; 10^−4 M, control 60.0 ± 2.1) of the same compound?
Its value is 48.9 ± 2.4 %.

And the “MA - fall … % to the standard” value (thrombocytes; 10^−5 M, control 52.5 ± 2.1)?
The value was 44.2 ± 2.7 %.

What about the “MA - drop of optical density, %” value (thrombocytes; 10^−7 M, control 51.5 ± 2.1) of the same compound?
Its value is 50.4 ± 3.0%.

Which “number of electrons participating in the reduction reaction” value ([1]; calculated with Geirovsky-Ilkovich equation) does the source give for `O=c1[nH][nH]c(=O)c2ncncc12.[Li]` [Compound 35, lithium salt of pyrimido[4,5-d]-6H-pyridazine-5,8-dione] here?
The value was 3.5.

What about the i ([1]; pH 7.0) of the same compound?
Its i is 0.30 ± 0.05 mkA.

What about the “−E1/2” value ([1]; pH 7.0) of the same compound?
The value was 0.08 ± 0.02 V.

And the i ([1]; pH 7.2)?
Its i is 0.26 ± 0.02 mkA.

What about the “−E1/2” value ([1]; pH 7.2) of the same compound?
Its value is 0.085 ± 0.015 V.

And the i ([1]; pH 7.4)?
The i was 0.30 ± 0.03 mkA.

What about the “−E1/2” value ([1]; pH 7.4) of the same compound?
Its value is 0.085 ± 0.02 V.

What about the i ([1]; pH 7.6) of the same compound?
The i was 0.30 ± 0.02 mkA.

And the “−E1/2” value ([1]; pH 7.6)?
The value was 0.09 ± 0.02 V.

What about the “half-wave potential more positive at reverse stroke compared to forward stroke” value ([1]; polarograms of reverse stroke) of the same compound?
The value was 27.0 mV.

And the “rise of pHi” value ([2]; 2.0 mkg/ml, on the average)?
The value was 0.10 unit pHi.

What about the “rise of pHi” value ([2]; 20.0 mkg/ml, on the average) of the same compound?
Its value is 0.07 unit pHi.

What about the “change of pHi” value ([2]; 0.02 mkg/ml) of the same compound?
Its value is “no effect was found”.

And the “change of pHi” value ([2]; 0.2 mkg/ml)?
Its value is “no effect was found”.

What about the “change of pHi” value ([2]; 2.0 mkg/ml, on the average) of the same compound?
The value was 0.08 unit pHi.

And the “change of pHi” value ([2]; 20.0 mkg/ml, on the average)?
Its value is 0.08 unit pHi.

And the “change of pHi” value ([2]; 200 mkg/ml)?
Its value is “no effect was found”.

What about the “change of pHi” value ([2]; 1000 mkg/ml) of the same compound?
The value was “no effect was found”.

What about the “increase of pHi of cytosol” value ([2]; 0.02 mkg/ml) of the same compound?
Its value is “do not initiate a change of pH”.

And the “increase of pHi of cytosol” value ([2]; 0.2 mkg/ml, on the average)?
The value was 0.1 unit pH.

What about the “increase of pHi of cytosol” value ([2]; 2.0 mkg/ml, on the average) of the same compound?
The value was 0.12 unit pH.

And the “increase of pHi of cytosol” value ([2]; 20.0 mkg/ml)?
Its value is “do not initiate a change of pH”.

Reference: patent US8592421B2, “Cyclic bioisosters of purine system derivatives and a pharmaceutical composition based thereon” (priority 2003, dated 2013)
